# According to US20100158846A1, “HAIR-BINDING PEPTIDES” (E. I. DU PONT DE NEMOURS AND COMPANY, priority 2008, published 2010):
# Conditions: biotinylated peptide binding to gray human hair bundle; streptavidin-HRP/TMB, A450; calculated from Scatchard plots
# Method: Then, the streptavidin-horseradish peroxidase (HRP) conjugate (Pierce Chemical Co., Rockford, Ill.) was added to each well (1.0 μg per well), and incubated for 1 h at room temperature, followed by 6 times of washes with TBST. […] The results were plotted as A450 versus the concentration of peptide using GraphPad Prism 4.0 (GraphPad Software, Inc., San Diego, Calif.).
substance,measurement,value
PLWRRITKRKLVRPVATLMWYWFTSKR-K(biotin)-NH2 [CXH-G2],MB50,72 nM
